pIC50: −log10 of the molar value.
Molecular target: T1, Menin MLL 4-43 (Homo sapiens, UniProt O00255)
T1 sequence (O00255 1-610): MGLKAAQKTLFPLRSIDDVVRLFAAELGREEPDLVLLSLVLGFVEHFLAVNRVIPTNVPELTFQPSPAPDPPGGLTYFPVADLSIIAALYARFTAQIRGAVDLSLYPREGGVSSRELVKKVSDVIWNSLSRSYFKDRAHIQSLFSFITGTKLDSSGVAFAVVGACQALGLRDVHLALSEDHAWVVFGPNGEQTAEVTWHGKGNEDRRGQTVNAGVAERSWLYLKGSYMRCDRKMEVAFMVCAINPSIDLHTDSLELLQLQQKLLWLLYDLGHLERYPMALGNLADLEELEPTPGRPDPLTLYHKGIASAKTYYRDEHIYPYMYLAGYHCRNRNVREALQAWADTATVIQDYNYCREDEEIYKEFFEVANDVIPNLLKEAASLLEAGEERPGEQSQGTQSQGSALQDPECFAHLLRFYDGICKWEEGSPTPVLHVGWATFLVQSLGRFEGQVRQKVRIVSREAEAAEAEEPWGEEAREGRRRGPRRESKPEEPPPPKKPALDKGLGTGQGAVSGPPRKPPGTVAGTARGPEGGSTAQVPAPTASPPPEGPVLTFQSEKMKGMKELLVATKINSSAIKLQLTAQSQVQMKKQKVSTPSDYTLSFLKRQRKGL
Assay: Fluorescence polarization (FP) competition assay of the menin-MLL interaction
Format: binding
Details: fluorescence polarization assay; read-out: Menin MLL 4-43 IC50

Structure (SMILES)	pIC50
Cc1c(CN2CCC(Nc3ncnc4sc(CC(F)(F)F)cc34)CC2)ccc2c1cc(C#N)n2CC(C)N1CC(NS(C)(=O)=O)C1 (stereo not drawn) [Compound 169]	6.00 to 7.70
Cc1c(CN2CCC(Nc3nc(N(C)C)nc4sc(CC(F)(F)F)cc34)CC2)ccc2c1cc(C#N)n2C[C@H](C)N1CCN(S(C)(=O)=O)CC1 [Compound 170]	< 6.00
Cc1c(CN2CCC(Nc3nc(C4CC4)nc4sc(CC(F)(F)F)cc34)CC2)ccc2c1cc(C#N)n2C[C@H](C)N1CCN(S(C)(=O)=O)CC1 [Compound 173]	6.00 to 7.70
Cc1c(CN2CCC(Nc3nc(N)nc4sc(CC(F)(F)F)cc34)CC2)ccc2c1cc(C#N)n2C[C@H](C)N1C[C@@H](C)N(S(C)(=O)=O)[C@H](C)C1 [Compound 179]	6.60 to 7.30
Cc1c(CN2CCC(Nc3nc(N)nc4sc(CC(F)(F)F)cc34)CC2)ccc2c1cc(C#N)n2C[C@@H](C)N1C[C@@H](C)N(S(C)(=O)=O)[C@H](C)C1 [Compound 180]	6.60 to 7.30
CNc1nc(NC2CCN(Cc3ccc4c(cc(C#N)n4C[C@H](C)N4CCC(S(=O)(=O)NC)CC4)c3C)CC2)c2cc(CC(F)(F)F)sc2n1 [Compound 185]	6.60 to 7.30
Cc1c(CN2CCC(Nc3nc(N)nc4sc(CC(F)(F)F)cc34)CC2)ccc2c1cc(C#N)n2C[C@H](C)N1CCOCC1 [Compound 188]	6.60 to 7.30
Cc1c(CN2CCC(Nc3nc(N)nc4sc(CC(F)(F)F)cc34)CC2)ccc2c1cc(C#N)n2C[C@H](C)N1CCN(C2CC2)CC1 [Compound 190]	6.60 to 7.30
CNc1nc(NC2CCN(Cc3ccc4c(cc(C#N)n4C[C@H](C)N4CCC(F)(F)CC4)c3C)CC2)c2cc(CC(F)(F)F)sc2n1 [Compound 195]	6.60 to 7.30
CNc1nc(NC2CCN(Cc3ccc4c(cc(C#N)n4C[C@H](C)N4CCN(S(=O)(=O)CF)CC4)c3C)CC2)c2cc(CC(F)(F)F)sc2n1 [Compound 198]	6.60 to 7.30
CCOC(=O)c1c(CC(F)(F)F)sc2ncnc(NC3CCN(Cc4ccc5c(cc(C#N)n5C[C@H](C)N5CCN(S(C)(=O)=O)CC5)c4C)CC3)c12 [Compound 200]	< 6.00
Cc1nc(NC2CCN(Cc3ccc4c(cc(C#N)n4C[C@@H](C)N4CCN(S(C)(=O)=O)CC4)c3C)CC2)c2cc(CC(F)(F)F)sc2n1 [Compound 201]	6.00 to 7.70
CNc1nc(NC2CCN(Cc3ccc4c(cc(C#N)n4C[C@H](C)N4CCN(S(=O)(=O)C5CC5)CC4)c3C)CC2)c2cc(CC(F)(F)F)sc2n1 [Compound 211]	6.60 to 7.30
CCC(=O)NC1CCN([C@@H](C)Cn2c(C#N)cc3c(C)c(CN4CCC(Nc5nc(NC)nc6sc(CC(F)(F)F)cc56)CC4)ccc32)CC1 [Compound 213]	> 7.30
CNc1nc(NC2CCN(Cc3ccc4c(cc(C#N)n4C[C@H](C)N4CCOC(C(=O)N(C)C)C4)c3C)CC2)c2cc(CC(F)(F)F)sc2n1 (stereo partly drawn) [Compound 215]	> 7.30
CNc1nc(NC2CCN(Cc3ccc4c(cc(C#N)n4C[C@H](C)N4CCOC(C(N)=O)C4)c3C)CC2)c2cc(CC(F)(F)F)sc2n1 (stereo partly drawn) [Compound 216]	> 7.30
Cc1nc(NC2CCN(Cc3ccc4c(cc(C#N)n4C[C@H](C)N4CCS(=O)(=O)CC4)c3C)CC2)c2cc(CC(F)(F)F)sc2n1 [Compound 219]	> 7.30

Structure (SMILES)	pIC50
CNC(=O)CC1CCN([C@@H](C)Cn2c(C#N)cc3c(C)c(CN4CCC(Nc5nc(C)nc6sc(CC(F)(F)F)cc56)CC4)ccc32)CC1 [Compound 220]	> 7.30
Cc1nc(NC2CCN(Cc3ccc4c(cc(C#N)n4C[C@H](C)N4CCC(CC(=O)N(C)C)CC4)c3C)CC2)c2cc(CC(F)(F)F)sc2n1 [Compound 221]	> 7.30
Cc1c(CN2CCC(Nc3nc(F)nc4sc(CC(F)(F)F)cc34)CC2)ccc2c1cc(C#N)n2C[C@H](C)N1CCN(S(C)(=O)=O)CC1 [Compound 222]	> 7.30
CNc1nc(NC2CCN(Cc3ccc4c(cc(C#N)n4C[C@H](C)N4CCNCC4=O)c3C)CC2)c2cc(CC(F)(F)F)sc2n1 [Compound 225]	> 7.30
CNc1nc(NC2CCN(Cc3ccc4c(cc(C#N)n4C[C@H](C)N4CCN(C)CC4=O)c3C)CC2)c2cc(CC(F)(F)F)sc2n1 [Compound 226]	> 7.30
CNc1nc(NC2CCN(Cc3ccc4c(cc(C#N)n4CC(C)c4ccc(=O)[nH]c4)c3C)CC2)c2cc(CC(F)(F)F)sc2n1 (stereo not drawn) [Compound 229]	> 7.30
CNc1nc(NC2CCN(Cc3ccc4c(cc(C#N)n4CC(C)c4cn[nH]c4)c3C)CC2)c2cc(CC(F)(F)F)sc2n1 (stereo not drawn) [Compound 230]	6.60 to 7.30
CNc1nc(NC2CCN(Cc3ccc4c(cc(C#N)n4C[C@H](C)N4CCN(S(C)(=O)=O)C(CO)C4)c3C)CC2)c2cc(CC(F)(F)F)sc2n1 (stereo partly drawn) [Compound 233]	> 7.30
Cc1c(CN2CCC(Nc3nc(CF)nc4sc(CC(F)(F)F)cc34)CC2)ccc2c1cc(C#N)n2C[C@H](C)N1CCN(S(C)(=O)=O)CC1 [Compound 241]	6.60 to 7.30
Cc1nc(NC2CCN(Cc3ccc4c(cc(C#N)n4C[C@H](C)N4CCN(S(C)(=O)=O)CC4)c3C)CC2)c2c(C)c(CC(F)(F)F)sc2n1 [Compound 242]	< 6.00
CNc1nc(NC2CCN(Cc3ccc4c(cc(C#N)n4C[C@H](C)N4CCN(C)C(=O)C4)c3C)CC2)c2cc(CC(F)(F)F)sc2n1 [Compound 243]	> 7.30
CNc1nc(NC2CCN(Cc3ccc4c(cc(C#N)n4C[C@H](C)N4CCNC(=O)C4)c3C)CC2)c2cc(CC(F)(F)F)sc2n1 [Compound 244]	> 7.30
CC(=O)OCc1nc(NC2CCN(Cc3ccc4c(cc(C#N)n4C[C@H](C)N4CCN(S(C)(=O)=O)CC4)c3C)CC2)c2cc(CC(F)(F)F)sc2n1 [Compound 245]	6.60 to 7.30
Cc1c(CN2CCC(Nc3nc(CO)nc4sc(CC(F)(F)F)cc34)CC2)ccc2c1cc(C#N)n2C[C@H](C)N1CCN(S(C)(=O)=O)CC1 [Compound 246]	> 7.30
CNc1nc(NC2CCN(Cc3ccc4c(cc(C#N)n4CC(C)C4CCN(S(C)(=O)=O)CC4)c3C)CC2)c2cc(CC(F)(F)F)sc2n1 (stereo not drawn) [Compound 247]	> 7.30
CNc1nc(NC2CCN(Cc3ccc4c(cc(C#N)n4C[C@H](C)N4CCN(S(=O)(=O)CC(C)C)CC4)c3C)CC2)c2cc(CC(F)(F)F)sc2n1 [Compound 248]	> 7.30

Now from value to compound:

pIC50	Structure (SMILES)
> 7.30	Cc1nc(NC2CCN(Cc3ccc4c(cc(C#N)n4C[C@H](C)N4CCN(CC(N)=O)CC4)c3C)CC2)c2cc(CC(F)(F)F)sc2n1 [Compound 178]
> 7.30	CNc1nc(NC2CCN(Cc3ccc4c(cc(C#N)n4C[C@H](C)N4CCN(CC(N)=O)CC4)c3C)CC2)c2cc(CC(F)(F)F)sc2n1 [Compound 182]
> 7.30	CNS(=O)(=O)C1CCN([C@@H](C)Cn2c(C#N)cc3c(C)c(CN4CCC(Nc5nc(N)nc6sc(CC(F)(F)F)cc56)CC4)ccc32)CC1 [Compound 184]
> 7.30	CNS(=O)(=O)C1CCN([C@@H](C)Cn2c(C#N)cc3c(C)c(CN4CCC(Nc5nc(C)nc6sc(CC(F)(F)F)cc56)CC4)ccc32)CC1 [Compound 186]
> 7.30	Cc1c(CN2CCC(Nc3nc(N)nc4sc(CC(F)(F)F)cc34)CC2)ccc2c1cc(C#N)n2C[C@H](C)N1CCN(S(=O)(=O)CCO)CC1 [Compound 187]
> 7.30	CNC(=O)CN1CCN([C@@H](C)Cn2c(C#N)cc3c(C)c(CN4CCC(Nc5nc(NC)nc6sc(CC(F)(F)F)cc56)CC4)ccc32)CC1 [Compound 189]
> 7.30	CNc1nc(NC2CCN(Cc3ccc4c(cc(C#N)n4C[C@H](C)N4CCN(CC(=O)N(C)C)CC4)c3C)CC2)c2cc(CC(F)(F)F)sc2n1 [Compound 191]
> 7.30	CNc1nc(NC2CCN(Cc3ccc4c(cc(C#N)n4C[C@H](C)N4CCN(S(=O)(=O)NC)CC4)c3C)CC2)c2cc(CC(F)(F)F)sc2n1 [Compound 192]
> 7.30	CNc1nc(NC2CCN(Cc3ccc4c(cc(C#N)n4C[C@H](C)N4CCC(S(C)(=O)=O)CC4)c3C)CC2)c2cc(CC(F)(F)F)sc2n1 [Compound 193]
> 7.30	CNc1nc(NC2CCN(Cc3cc4cc(C#N)n(C[C@H](C)N5CCN(S(C)(=O)=O)CC5)c4cc3O)CC2)c2cc(CC(F)(F)F)sc2n1 [Compound 194]
> 7.30	CNc1nc(NC2CCN(Cc3ccc4c(cc(C#N)n4C[C@H](C)N4CCN(S(C)(=O)=O)[C@H](C(=O)N(C)C)C4)c3C)CC2)c2cc(CC(F)(F)F)sc2n1 [Compound 196]
> 7.30	CNC(=O)[C@@H]1CN([C@@H](C)Cn2c(C#N)cc3c(C)c(CN4CCC(Nc5nc(NC)nc6sc(CC(F)(F)F)cc56)CC4)ccc32)CCN1S(C)(=O)=O [Compound 197]
> 7.30	CNc1nc(NC2CCN(Cc3ccc4c(cc(C#N)n4C[C@H](C)N4CCC(CC(=O)N(C)C)CC4)c3C)CC2)c2cc(CC(F)(F)F)sc2n1 [Compound 202]
> 7.30	CNc1nc(NC2CCN(Cc3ccc4c(cc(C#N)n4C[C@H](C)N4CCC(CC(N)=O)CC4)c3C)CC2)c2cc(CC(F)(F)F)sc2n1 [Compound 204]
> 7.30	CNC(=O)CC1CCN([C@@H](C)Cn2c(C#N)cc3c(C)c(CN4CCC(Nc5nc(NC)nc6sc(CC(F)(F)F)cc56)CC4)ccc32)CC1 [Compound 206]
> 7.30	CNc1nc(NC2CCN(Cc3ccc4c(cc(C#N)n4C[C@H](C)N4CCN(S(C)(=O)=O)[C@H](C#N)C4)c3C)CC2)c2cc(CC(F)(F)F)sc2n1 [Compound 209]
> 7.30	CCS(=O)(=O)N1CCN([C@@H](C)Cn2c(C#N)cc3c(C)c(CN4CCC(Nc5nc(NC)nc6sc(CC(F)(F)F)cc56)CC4)ccc32)CC1 [Compound 210]
> 7.30	C=CC(=O)NC1CCN([C@@H](C)Cn2c(C#N)cc3c(C)c(CN4CCC(Nc5nc(NC)nc6sc(CC(F)(F)F)cc56)CC4)ccc32)CC1 [Compound 212]

From US11673898B2, “Substituted inhibitors of menin-MLL and methods of use” (Kura Oncology, Inc., priority 2016, dated 2023)
